Experimental data from patent US10391070B2, “Compositions and methods for treating neurological diseases or injury” (MUSC FOUNDATION FOR RESEARCH DEVELOPMENT, priority 2012, dated 2019).
Read-outs that look alike come from different tables or passages of the source.

Experiments:
Type in all cases: cell-based, mouse
HT22 cells [1] = test: In vitro neuroprotective activity against glutamate-induced cell death (MTS cell viability); conditions: Mus musculus, read-out: Protection PC50
Experimental: (§1) The HT22 neuronal cell line is a subclone of HT4, derived from the mouse hippocampus (Morimoto and Koshland, 1990). […] HT22 cells were used. The cells were grown in Dulbecco's Modified Eagle's medium (DMEM/high glucose) supplemented with 10% fetal bovine serum (Hyclone) and 5 mL Antibiotic-Antimycotic (Amphotericin B, Penicillin, and Streptomycin; Invitrogen) at 37° C. in 5% CO2.
(§2) Cell viability was assessed by the ability of the viable cells to metabolize 3-(4,5-dimethylthiazol-2-yl)-5-(3-carboxymethoxyphenyl)-2(4-sulfophenyl)2-H-tetrazolium, inner salt (MTS), as described previously (Cory et al., 1991). The metabolism of tetrazolium salts is often used to measure cellular proliferation, but in the system used here, it has been previously shown to correlate well with cell viability as determined by trypan blue exclusion and colony-forming assays (Davis and Maher, 1994). Briefly, HT-22 cells were seeded onto 96-well plates at 5.0×10^3 cells per well in 75 μL of medium and maintained at 37° C. in 5% CO2 overnight prior to the initiation of experimental treatments. For glutamate toxicity testing, cells were subsequently treated with 25 μL of medium containing glutamate (monosodium glutamate, Sigma, 1 M stock concentration in media, to achieve a final concentration of 10 mM) plus inhibitors (stock in DMSO) and maintained at 37° C. in 5% CO2. For t-BuOOH toxicity testing, cells were subsequently treated with 25 μL of medium containing t-BuOOH (Sigma, 10 mM stock concentration, to achieve a final concentration of 50 μM) plus inhibitors (stock in DMSO) and maintained at 37° C. in 5% CO2 for 3 hours, after which the media was removed, cells washed gently with HBSS, the media replaced with standard culture media, and the cells returned to incubation at 37° C. in 5% CO2. For both glutamate and t-BuOOH treatments, 10 μl of MTS solution was added to each well 24 hrs after initial treatment, and the cells were maintained in growth medium for 2 h at 37° C. Absorbance at 490 nm was subsequently measured by a SpectraMax 190 plate reader (Molecular Devices). The growth medium without cells in the presence of MTS solution was used as solution background and untreated cells were considered the controls. Cell viability was calculated as a percentage compared with untreated controls. EC50 determinations were based on 12-point titrations using GraphPad Prism, and each experiment was repeated at least four times. Morphology of HT22 cells following treatments was determined by phase-contrast microscopy. Digital images of cells grown on cell culture plates were captured at 10× magnification.
The neuroprotective properties of VK and its derivatives were estimated through their protective effects against cell death in mouse neuronal HT22 cells induced by exposure to high levels of glutamate, which recapitulates a hallmark of the extracellular environment found in several neurodegenerative diseases and CNS injuries and is a well established model of neuronal oxidative stress. This investigation began by comparing the relative abilities of the two predominant naturally occurring forms of VK, VK1 and VK2, to prevent oxidative cell death. […] Several 1,4-naphthoquinones with various substitutions at the 2′ and 3′ positions were tested to determine the minimum structural requirement of the system and what the optimum scaffold for future developmental efforts and biological validation would be (FIG. 1B and Table 1). […] Substitution by a single methyl group at the 2′ position (VK3) improves the compound's ability to protect against cell death. Various other simple substituents at the 2′ and 3′ positions give the naphthoquinone structure the ability to prevent oxidative cell death at nanomolar concentrations (Table 1 and FIG. 16).

HT22 cells [2] = test: In vitro neurotoxicity without glutamate (MTS cell viability); conditions: for Safety Index TC50/PC50: HT22 cells; for CC50: HT22 cells without glutamate, 24 hrs, MTS, concentration producing 50% toxicity, read-out: Toxicity TC50
Experimental: as §1, §2

[3] = as above; conditions: mouse, HT22 cells without glutamate, 24 hrs, MTS, concentration producing 50% toxicity, read-out: Toxicity TC50
Experimental: as §1, §2

[4] = HT-22, HT22 cells, 10 mM glutamate, 24 hrs, MTS, concentration producing 50% protection
[5] = HT22 neuronal cells (without glutamate)

| Structure (SMILES) | EC50 (HT22 cells [1]; [4]) [nM] | Safety Index TC50/PC50 (HT22 cells [2]) | CC50 (HT22 cells [2]) [nM] | CC50 at 24 h [3, 5] [nM] | EC50 (HT22 cells [1]; HT-22, 24 h) [nM] | CC50 at 24 h [3] [nM] |
| --- | --- | --- | --- | --- | --- | --- |
| CCCNC1=CC(=O)c2ccccc2C1=O [Compound 2e, 2-(propylamino)naphthalene-1,4-dione] | 328 | 91 | 30000 | – | – | – |
| O=C1C=C(NC(=O)C2CCCC2)C(=O)c2ccccc21 [Compound 3e, N-(1,4-dioxo-1,4-dihydronaphthalen-2-yl)cyclopentanecarboxamide] | > 1000 | 0 | – | 6000 | – | – |
| NC1=CC(=O)c2ccccc2C1=O [Compound 1d, 2-amino-1,4-naphthoquinone] | – | 803 | 49000 | – | 61 | – |
| O=C1C=C(NCc2cccc(C(F)(F)F)c2)C(=O)c2ccccc21 [Compound 2u, 2-((3-(trifluoromethyl)benzyl)amino)naphthalene-1,4-dione] | 45 | 2,222 | > 100000 | – | – | – |
| O=C(NC1=CC(=O)c2ccccc2C1=O)c1ccc(Cl)cc1 [Compound 3i, 4-chloro-N-(1,4-dioxo-1,4-dihydronaphthalen-2-yl)benzamide] | 405 | 67 | – | 27000 | – | – |
| O=C1C=C(O)C(=O)c2ccccc21 [Compound 1g] | – | 100 | > 100000 | – | 1000 | – |
| O=C(Cc1ccc(-c2ccccc2)cc1)NC1=CC(=O)c2ccccc2C1=O [Compound 3l, 2-([1,1′-biphenyl]-4-yl)-N-(1,4-dioxo-1,4-dihydronaphthalen-2-yl)acetamide] | 890 | 47 | – | 42000 | – | – |
| CC(C)NC(=O)NC1=CC(=O)c2ccccc2C1=O [Compound 4b, 1-(1,4-dioxo-1,4-dihydronaphthalen-2-yl)-3-isopropylurea] | 64 | 125 | – | 8000 | – | – |
| O=C(O)c1cc(=O)c2ccccc2o1 | > 1000 | – | – | > 100000 | – | – |
| O=C(NC1=CC(=O)c2ccccc2C1=O)Nc1ccccc1 [Compound 4c, 1-(1,4-dioxo-1,4-dihydronaphthalen-2-yl)-3-phenylurea] | 890 | 112 | – | > 100000 | – | – |
| O=C1C=C(NCc2ccc(Cl)c(Cl)c2)C(=O)c2ccccc21 [Compound 2v, 2-((3,4-dichlorobenzyl)amino)naphthalene-1,4-dione] | 46 | 2,174 | > 100000 | – | – | – |
| CC(C)NC1=CC(=O)c2ccccc2C1=O [Compound 2d, 2-(isopropylamino)naphthalene-1,4-dione] | 1700 | 27 | 46000 | – | – | – |
| CNC1=CC(=O)c2ccccc2C1=O [Compound 2a, 2-(methylamino)naphthalene-1,4-dione] | 1350 | 74 | > 100000 | – | – | – |
| O=C(Cc1ccccc1)NC1=CC(=O)c2ccccc2C1=O [Compound 3k, N-(1,4-dioxo-1,4-dihydronaphthalen-2-yl)-2-phenylacetamide] | 658 | 49 | – | – | – | 32000 |
| O=C1C=C(NCC2CCCCC2)C(=O)c2ccccc21 [Compound 2g, 2-((cyclohexylmethyl)amino)naphthalene-1,4-dione] | 54 | 1,852 | > 100000 | – | – | – |
| COC(=O)c1ccc(CNC2=CC(=O)c3ccccc3C2=O)cc1 [Compound 2t, methyl 4-(((1,4-dioxo-1,4-dihydronaphthalen-2-yl)amino)methyl)benzoate] | 232 | 431 | > 100000 | – | – | – |
| O=C1C=C(NCc2ccccn2)C(=O)c2ccccc21 [Compound 2o, 2-((pyridin-2-ylmethyl)amino)naphthalene-1,4-dione] | 933 | 54 | 50000 | – | – | – |
| CC1=C(N)C(=O)c2ccccc2C1=O [Compound 1e, 2-amino-3-methyl-1,4-naphthoquinone] | 1740 | 31 | 54000 | – | – | – |

| Structure (SMILES) | EC50 (HT22 cells [1]; [4]) [nM] | Safety Index TC50/PC50 (HT22 cells [2]) | CC50 (HT22 cells [2]) [nM] | CC50 at 24 h [3, 5] [nM] | EC50 (HT22 cells [1]; HT-22, 24 h) [nM] | CC50 at 24 h [3] [nM] |
| --- | --- | --- | --- | --- | --- | --- |
| O=C(O)c1coc2ccccc2c1=O | > 1000 | – | – | > 100000 | – | – |
| CC(C)C(=O)NC1=CC(=O)c2ccccc2C1=O [Compound 3d, N-(1,4-dioxo-1,4-dihydronaphthalen-2-yl)isobutyramide] | > 1000 | 0 | – | 8000 | – | – |
| O=C(Nc1ccccc1)c1coc2ccccc2c1=O [4-oxo-N-phenyl-4H-chromene-3-carboxamide] | > 1000 | – | – | > 100000 | – | – |
| O=C1C=C(NCc2cccnc2)C(=O)c2ccccc21 [Compound 2n, 2-((pyridin-3-ylmethyl)amino)naphthalene-1,4-dione] | 215 | 172 | 37000 | – | – | – |
| COc1ccc(CNC2=CC(=O)c3ccccc3C2=O)cc1 [Compound 2s, 2-((4-methoxybenzyl)amino)naphthalene-1,4-dione] | 114 | 877 | > 100000 | – | – | – |
| CN(Cc1ccccc1)C1=CC(=O)c2ccccc2C1=O [Compound 2k, 2-(benzyl(methyl)amino)naphthalene-1,4-dione] | 128 | 781 | > 100000 | – | – | – |
| CC1=C(C)C(=O)c2ccccc2C1=O [Compound 1c] | 118 | 254 | 30000 | – | – | – |
| O=C(O)C1=CC(=O)c2ccccc2C1=O [Compound 1f] | 716 | 140 | > 100000 | – | – | – |
| O=C1C=C(NC2CCCC2)C(=O)c2ccccc21 [Compound 2f, 2-(cyclopentylamino)naphthalene-1,4-dione] | 409 | 108 | 44000 | – | – | – |
| O=C1C=C(NCc2ccc(Cl)cc2)C(=O)c2ccccc21 [Compound 2p, 2-((4-chlorobenzyl)amino)naphthalene-1,4-dione] | 59 | 1,695 | > 100000 | – | – | – |
| O=C1C=C(Nc2ccccc2)C(=O)c2ccccc21 [Compound 2i, 2-(phenylamino)naphthalene-1,4-dione] | – | 109 | 7000 | – | 64 | – |
| O=C(Nc1ccccc1)c1cc(=O)c2ccccc2o1 [4-oxo-N-phenyl-4H-chromene-2-carboxamide] | > 1000 | – | – | > 100000 | – | – |
| Cc1ccc(CNC2=CC(=O)c3ccccc3C2=O)cc1 [Compound 2r, 2-((4-methylbenzyl)amino)naphthalene-1,4-dione] | – | 1,515 | > 100000 | – | 66 | – |
| O=C1C=C(NCCc2ccccc2)C(=O)c2ccccc21 [Compound 2l] | 584 | 171 | > 100000 | – | – | – |
| O=C1C=CC(=O)c2ccccc21 [Compound 1a, 1,4-naphthoquinone, reference compound] | 1540 | 12 | 19000 | – | – | – |
| CCNC1=CC(=O)c2ccccc2C1=O [Compound 2b, 2-(ethylamino)naphthalene-1,4-dione] | 761 | 106 | 81000 | – | – | – |
| O=C1C=C(NCc2ccncc2)C(=O)c2ccccc21 [Compound 2m, 2-((pyridin-4-ylmethyl)amino)naphthalene-1,4-dione] | 72 | 1,111 | 80000 | – | – | – |
